This assay addresses Metabotropic glutamate receptor 4 (Homo sapiens, UniProt Q14833). The assay can be described thus: Intracellular Ca2+ Mobilization Assay (FLIPR). Here is the method:
A monoclonal HEK-293 cell line stably transfected with a cDNA encoding for the human mGlu4 receptor was generated. Cells were cultured according to standard protocols (Freshney, 2000) in Dulbecco's Modified Eagle Medium with high glucose supplemented with 1 mM glutamine, 10% (vol/vol) heat-inactivated bovine calf serum, penicillin/streptomycin, 50 μg/ml hygromycin and 15 μg/ml blasticidin (all cell culture reagents and antibiotics from Invitrogen, Basel, Switzerland).About 24 hrs before an experiment, 5×10^4 cells/well were seeded in poly-D-lysine coated, black/clear-bottomed 96-well plates. The cells were loaded with 2.5 μM Fluo-4AM in loading buffer (1×HBSS, 20 mM HEPES) for 1 hr at 37° C. and washed five times with loading buffer. The cells were transferred into a Functional Drug Screening System 7000 (Hamamatsu, Paris, France), and 11 half logarithmic serial dilutions of test compound at 37° C. were added and the cells were incubated for 10-30 min. with on-line recording of fluorescence. […]
(In general: A change in cytosolic calcium serves as a functional read-out for many receptors and channels.)

Metabotropic glutamate receptor 4, sequence (Q14833 whole entry): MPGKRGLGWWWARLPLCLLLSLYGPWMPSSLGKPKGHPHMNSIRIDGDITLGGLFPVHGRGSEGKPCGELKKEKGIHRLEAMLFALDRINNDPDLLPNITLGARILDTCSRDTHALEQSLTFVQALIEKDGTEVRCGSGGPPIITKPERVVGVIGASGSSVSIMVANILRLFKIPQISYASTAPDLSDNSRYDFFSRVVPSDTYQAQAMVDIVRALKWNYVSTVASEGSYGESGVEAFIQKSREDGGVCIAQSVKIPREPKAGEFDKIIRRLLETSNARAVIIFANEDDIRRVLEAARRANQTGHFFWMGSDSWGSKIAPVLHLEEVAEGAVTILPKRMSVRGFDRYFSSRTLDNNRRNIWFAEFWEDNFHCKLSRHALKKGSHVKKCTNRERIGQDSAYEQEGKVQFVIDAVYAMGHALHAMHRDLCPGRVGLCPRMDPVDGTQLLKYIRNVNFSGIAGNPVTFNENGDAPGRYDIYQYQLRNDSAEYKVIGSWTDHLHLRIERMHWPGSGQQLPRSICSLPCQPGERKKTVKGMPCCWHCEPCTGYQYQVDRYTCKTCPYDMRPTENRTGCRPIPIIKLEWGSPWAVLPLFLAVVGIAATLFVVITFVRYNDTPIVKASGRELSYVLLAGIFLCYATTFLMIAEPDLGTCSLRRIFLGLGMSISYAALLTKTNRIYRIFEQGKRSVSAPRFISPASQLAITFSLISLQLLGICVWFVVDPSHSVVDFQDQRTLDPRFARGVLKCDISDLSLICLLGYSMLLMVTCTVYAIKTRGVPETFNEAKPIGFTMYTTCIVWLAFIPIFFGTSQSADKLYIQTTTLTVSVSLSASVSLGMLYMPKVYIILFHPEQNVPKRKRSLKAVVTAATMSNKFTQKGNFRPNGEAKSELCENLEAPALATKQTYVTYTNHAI

For orientation: EC50 means the midpoint of the concentration-response curve. A lower EC50 goes with greater potency. As to `CC(C)(C)c1cnn(-c2cc(F)c(NS(=O)(=O)c3cccc(Cl)c3Cl)c(F)c2)c1` [US12065399, Example 59], the EC50 stood at 9.28 µM.
